Measurements taken from patent publication US12171554B2, “Marker monitoring via a medical device” (Medtronic, Inc., priority 2017, dated 2024).

Experiment: Fluorophore detection in interstitial fluid (ISF) of rats after IV or PO dosing, subcutaneous optical PMMA fiber and reader device
Conditions: rat, in vivo
From the text: Study Protocol: The purpose of the study was to investigate in an acute or semi-chronic rat trial set-up if fluorophores are detectable in the ISF (InterStitial Fluid) when injected IV or given to the rat Per Oral (PO). Four rat subjects (Rat 001, Rat 002, Rat 003, and Rat 004) were included in the study. The procedure of the study was as follows: Rat subjects were Sprague Dawley rats, male, Diet Induced Obese (DIO). For each rat, the rat was anaesthesized, shaved and cleaned on the back for PMMA optical fiber insertion. A tail venous catheter was placed and two 250 um optical PMMA fibers were placed in the subcutaneous fat tissue of the DIO rat. The base and tape of the sensor unit was sutured to the skin.
For Rats 001 and 002, a reader device suitable for indocyanine green dye detection was mounted. [ . . . ] Rat 002 died during oral dosing while under anesthesia due to lack of swallowing reflex.
For Rats 003 and 004 reader devices suitable for Alexa Fluor 594™ (AF594) detection were mounted. Recording began using RF data transfer (GST protocol, MDT Diabetes). A first IV injection of 0.01 mg AF594 was injected (1 mL into tail vein). Rise and decay of fluorescence was observed before a second injection of 1 mL of 0.01 mg AF594 into the tail vein. Anesthesia then was removed and the rat was placed into a cage. […]

## CC1(C)C(/C=C/C=C/C=C/C=C2\N(CCCCS(=O)(=O)O)c3ccc4ccccc4c3C2(C)C)=[N+](CCCCS(=O)(=O)[O-])c2ccc3ccccc3c21 [Indo Cyanine Green]
  clearance from the ISF after IV dosing: relatively fast clearance
  signal in ISF after IV dosing: distinct signals
